US11564912B2, “Methods for treating irritable bowel syndrome (IBS)” (Salix Pharmaceuticals, Inc., priority 2008, dated 2023)
Several values for one entry are separate records, joined by “and”; a condition that tells them apart may be missing. Equal entries are not always repeated.

Tests used:
subjects with dIBS = assay: Study of rifaximin BID in subjects with dIBS: adequate relief of IBS symptoms and bloating; type: in vivo, human; conditions: for Percentage of Subjects with Adequate Relief of Bloating Symptom / Percentage of Subjects with Adequate Relief of IBS Symptoms: RFX 550 mg BID 14 days, N = 191, ITT, at least two of the final three weeks of treatment phase (Weeks 1 to 4); for Adequate Relief of Bloating, Post Treatment: Failures / Adequate Relief of Bloating, Post Treatment: Success / Adequate Relief of Bloating, Post Treatment: Failure: RFX 550 2 w (N = 54); for Patients with adequate relief of bloating / Patients with adequate relief of global IBS symptoms: rifaximin 550 mg twice daily 14 days
Protocol: This example relates to a study of rifaximin in subjects with dIBS. […] There were two measures of efficacy assessed. Subjects were questioned on the relief of overall IBS symptoms and bloating. […] The analyses defined success as a “yes” response to questions regarding adequate relief.
All subpopulations in the study responded to therapy. Baseline severity was determined using 7-point Lickert scales during screening for Abdominal Pain/Discomfort and Bloating, and the number, type (normal, hard, loose) and urgency of bowel movements.
Duration of effect was assessed in a follow-up period. Subjects that responded in the 4 week treatment period were followed for an additional 3 months.
The effect of treatment on the percentage of subjects who reported adequate relief of IBS and bloating symptoms for at least two of the final three weeks during the treatment phase (Weeks 1 to 4) is shown in Tables 3-5 and FIGS. 4-6 below.
Two measures of efficacy were assessed independently. The first was the proportion of subjects who provided a ‘yes’ response to the weekly SGA question: “In the past 7 days, have you had adequate relief of your IBS symptoms? (yes/no)”. The second endpoint was the proportion of subjects who provide a ‘yes’ response to the weekly individual symptom question: “In the past 7 days, have you had adequate relief of your symptom of bloating? (yes/no)”. Durability was based on the proportion of subjects that had adequate relief over the entire treatment phase.
It is reported herein that the severity of baseline symptoms of abdominal pain and bloating influenced the response to rifaximin treatment. The co-primary endpoints in this analysis assessed weekly yes/no responses to questions regarding adequate relief of global IBS symptoms and IBS-associated bloating. Severity of baseline IBS symptoms was evaluated as a potential confounder of clinical response and was categorized as mild/moderate or severe based on a mean score of ≤4 vs. >4 (on a 7-point scale) for bloating and abdominal pain.
The Weekly yes/no responses to questions regarding adequate relief of global IBS symptoms and IBS-associated bloating were assessed. Clinical response was defined as adequate relief for 2 of the final 3 treatment weeks (wk 2, 3, or 4). Severity of baseline IBS symptoms was evaluated as a potential confounder of clinical response and was categorized as mild/moderate or severe based on a mean score of ≤4 versus >4 (on a 7-point scale (0=not bothersome; 6=very bothersome)) for bloating and abdominal pain.

[1] = tested on: species of Staphylococcus, Streptococcus, Enterococcus, and Enterobacteriaceae; conditions: cited from earlier work
[2] = RFX 550 mg BID vs placebo, ITT, listed as RFX
[3] = RFX 550 mg BID, responders followed through week 16
[4] = patients with mild/moderate abdominal pain at baseline
[5] = patients with mild/moderate bloating at baseline

For “(2S,16Z,18E,20S,21S,22R, 23R,24R,25S,26S,27S,28E)-5,6,21,23,25 Pentahydroxy-27-methoxy -2,4,11,16,20,22,24,26-octamethyl-2,7-(epoxypentadeca-(1,11,13)trienimino)benzofuro (4,5-e) pyrido(1,2,-a) benzimidazole-1,15(2H)-dione,25-acetate [Rifaximin]”, which “Adequate Relief of IBS Symptoms at the End of the Treatment Phase: Success” value (subjects with dIBS; Male, RFX 550 2 w (N = 191)) is on record?
Its value is 29 (53.7%) n (%).

What about the “odds ratio, Adequate Relief of Bloating at the End of the Treatment Phase” value (subjects with dIBS; Male, RFX 550 2 w vs. PBO) of the same substance?
Its value is “Comparison of RFX 550 2 w vs. PBO p-value: 0.0802, odds ratio: 2.148 (0.912, 5.057)”.

And the “odds ratio, Adequate Relief of IBS Symptoms at the End of the Treatment Phase” value (subjects with dIBS; Male, RFX 550 2 w vs. PBO)?
Its value is “Comparison of RFX 550 2 w vs. PBO p-value: 0.0326, odds ratio: 2.511 (1.079, 5.842)”.

What about the “Adequate Relief of Bloating at the End of the Treatment Phase: Failure” value (subjects with dIBS; Male, RFX 550 4 w (N = 98)) of the same substance?
The value was 16 (72.7%) n (%).

What about the “Adequate Relief of Bloating at the End of the Treatment Phase: Success” value (subjects with dIBS; Male, RFX 550 4 w (N = 98)) of the same substance?
Its value is 6 (27.3%) n (%).

What about the “Adequate Relief of IBS Symptoms at the End of the Treatment Phase: Failure” value (subjects with dIBS; Male, RFX 550 4 w (N = 98)) of the same substance?
Its value is 15 (68.2%) n (%).

What about the “Adequate Relief of IBS Symptoms at the End of the Treatment Phase: Success” value (subjects with dIBS; Male, RFX 550 4 w (N = 98)) of the same substance?
The value was 7 (31.8%) n (%).

What about the “Percentage of Subjects with Adequate Relief of Bloating Symptom” value (subjects with dIBS) of the same substance?
Its value is 46%.

And the “Percentage of Subjects with Adequate Relief of IBS Symptoms” value (subjects with dIBS)?
The value was 52%.

And the “Percentage of Subjects with Adequate Relief of Bloating Symptom” value (subjects with dIBS; listed as RFX)?
Its value is 46.1%.

And the “Percentage of Subjects with Adequate Relief of IBS Symptoms” value (subjects with dIBS; listed as RFX)?
The value was 52.4%.

And the “Odds Ratio Estimate, Number of Weeks with Adequate Relief of Bloating Symptoms” value (subjects with dIBS; RFX 550 mg BID vs placebo, ITT)?
The value was 1.57.

What about the “Odds Ratio Estimate, Number of Weeks with Adequate Relief of IBS Symptoms” value (subjects with dIBS; RFX 550 mg BID vs placebo, ITT) of the same substance?
The value was 1.54.

What about the “Odds Ratio Estimate, Adequate Relief of Bloating Symptom” value (subjects with dIBS; [2]) of the same substance?
Its value is 1.6 and 1.58.

And the “Odds Ratio Estimate, Adequate Relief of IBS Symptoms” value (subjects with dIBS; [2])?
Its value is 1.6.

What about the “Adequate relief of IBS symptoms during post-treatment follow-up” value (subjects with dIBS; [3]) of the same substance?
Its value is 62.3%.

And the “Adequate relief of the symptom of bloating during post-treatment follow-up” value (subjects with dIBS; [3])?
Its value is 59.3%.

What about the “Adequate Relief of Bloating, Post Treatment: Failures” value (“Adequate Relief … Failures” for short) (subjects with dIBS; Week 6) of the same substance?
Its value is 5 (9.3%) n (%).

What about the “Adequate Relief of Bloating, Post Treatment: Success” value (subjects with dIBS; Week 6) of the same substance?
The value was 49 (90.7%) n (%).

And the “odds ratio, Adequate Relief of Bloating, Post Treatment” value (“odds ratio … Post Treatment” for short) (subjects with dIBS; Week 6, RFX 550 2 w vs. PBO)?
Its value is “Comparison of RFX 550 2 w vs. PBO p-value: 0.1303, odds ratio: 3.840”.

And the “Adequate Relief … Failures” value (subjects with dIBS; Week 7)?
Its value is 9 (16.7%) n (%).

And the “Adequate Relief of Bloating, Post Treatment: Success” value (subjects with dIBS; Week 7)?
The value was 45 (83.3%) n (%).

And the “odds ratio … Post Treatment” value (subjects with dIBS; Week 7, RFX 550 2 w vs. PBO)?
Its value is “Comparison of RFX 550 2 w vs. PBO p-value: 0.1311, odds ratio: 2.931”.

And the “Adequate Relief … Failures” value (subjects with dIBS; Week 8)?
Its value is 7 (13.0%) n (%).

What about the “Adequate Relief of Bloating, Post Treatment: Success” value (subjects with dIBS; Week 8) of the same substance?
The value was 47 (87.0%) n (%).

And the “odds ratio … Post Treatment” value (subjects with dIBS; Week 8, RFX 550 2 w vs. PBO)?
Its value is “Comparison of RFX 550 2 w vs. PBO p-value: 0.2858, odds ratio: 2.107”.

And the “Adequate Relief … Failures” value (subjects with dIBS; Week 9)?
The value was 15 (27.8%) n (%).

And the “Adequate Relief of Bloating, Post Treatment: Success” value (subjects with dIBS; Week 9)?
Its value is 39 (72.2%) n (%).

What about the “odds ratio … Post Treatment” value (subjects with dIBS; Week 9, RFX 550 2 w vs. PBO) of the same substance?
Its value is “Comparison of RFX 550 2 w vs. PBO p-value: 0.0814, odds ratio: 2.737”.

And the “Adequate Relief … Failures” value (subjects with dIBS; Week 10)?
Its value is 15 (27.8%) n (%).

What about the “Adequate Relief of Bloating, Post Treatment: Success” value (subjects with dIBS; Week 10) of the same substance?
The value was 39 (72.2%) n (%).

What about the “odds ratio … Post Treatment” value (subjects with dIBS; Week 10, RFX 550 2 w vs. PBO) of the same substance?
The value was “Comparison of RFX 550 2 w vs. PBO p-value: 0.0217, odds ratio: 3.828”.

And the “Adequate Relief … Failures” value (subjects with dIBS; Week 11)?
The value was 19 (35.2%) n (%).

What about the “Adequate Relief of Bloating, Post Treatment: Success” value (subjects with dIBS; Week 11) of the same substance?
Its value is 35 (64.8%) n (%).

What about the “odds ratio … Post Treatment” value (subjects with dIBS; Week 11, RFX 550 2 w vs. PBO) of the same substance?
The value was “Comparison of RFX 550 2 w vs. PBO p-value: 0.0398, odds ratio: 3.115”.

And the “Adequate Relief of Bloating, Post Treatment: Failure” value (subjects with dIBS; Week 12)?
The value was 18 (33.3%) n (%).

What about the “Adequate Relief of Bloating, Post Treatment: Success” value (subjects with dIBS; Week 12) of the same substance?
The value was 36 (66.7%) n (%).

What about the “odds ratio … Post Treatment” value (subjects with dIBS; Week 12, RFX 550 2 w vs. PBO) of the same substance?
The value was “Comparison of RFX 550 2 w vs. PBO p-value: 0.0596, odds ratio: 2.891”.

And the “Adequate Relief of Bloating, Post Treatment: Failure” value (subjects with dIBS; Week 13)?
Its value is 21 (38.9%) n (%).

And the “Adequate Relief of Bloating, Post Treatment: Success” value (subjects with dIBS; Week 13)?
Its value is 33 (61.1%) n (%).

And the “odds ratio … Post Treatment” value (subjects with dIBS; Week 13, RFX 550 2 w vs. PBO)?
The value was “Comparison of RFX 550 2 w vs. PBO p-value: 0.0142, odds ratio: 4.187”.

And the “Adequate Relief of Bloating, Post Treatment: Failure” value (subjects with dIBS; Week 14)?
The value was 20 (37.0%) n (%).

And the “Adequate Relief of Bloating, Post Treatment: Success” value (subjects with dIBS; Week 14)?
Its value is 34 (63.0%) n (%).

And the “odds ratio … Post Treatment” value (subjects with dIBS; Week 14, RFX 550 2 w vs. PBO)?
The value was “Comparison of RFX 550 2 w vs. PBO p-value: 0.0121, odds ratio: 4.230”.

And the “Adequate Relief of Bloating, Post Treatment: Failure” value (subjects with dIBS; Week 15)?
Its value is 23 (42.6%) n (%).

What about the “Adequate Relief of Bloating, Post Treatment: Success” value (subjects with dIBS; Week 15) of the same substance?
The value was 31 (57.4%) n (%).

What about the “odds ratio … Post Treatment” value (subjects with dIBS; Week 15, RFX 550 2 w vs. PBO) of the same substance?
Its value is “Comparison of RFX 550 2 w vs. PBO p-value: 0.0391, odds ratio: 3.323”.

And the “Adequate Relief of Bloating, Post Treatment: Failure” value (subjects with dIBS; Week 16)?
Its value is 22 (40.7%) n (%).

What about the “Adequate Relief of Bloating, Post Treatment: Success” value (subjects with dIBS; Week 16) of the same substance?
The value was 32 (59.3%) n (%).

And the “odds ratio … Post Treatment” value (subjects with dIBS; Week 16, RFX 550 2 w vs. PBO)?
Its value is “Comparison of RFX 550 2 w vs. PBO p-value: 0.0212, odds ratio: 3.700”.

And the “Treatment effect (Bloating)” value (subjects with dIBS; dIBS Type: aIBS)?
Its value is 31.4%*, 31.4%.

And the “Treatment effect (IBS Sx)” value (subjects with dIBS; dIBS Type: aIBS)?
The value was 31.4%*, 31.4%.

What about the “Treatment effect (Bloating)” value (subjects with dIBS; dIBS Type: dIBS only) of the same substance?
The value was 4.5%.

And the “Treatment effect (IBS Sx)” value (subjects with dIBS; dIBS Type: dIBS only)?
The value was 6.3%.

And the “Patients with adequate relief of bloating” value (subjects with dIBS; [4])?
The value was 44%.

And the “Patients with adequate relief of global IBS symptoms” value (subjects with dIBS; [4])?
The value was 50%.

What about the “Patients with adequate relief of bloating” value (subjects with dIBS; [5]) of the same substance?
The value was 47%.

And the “Patients with adequate relief of global IBS symptoms” value (subjects with dIBS; [5])?
Its value is 56%.

And the “In vitro antibacterial activity” value [1]?
Its value is “active”.
